The values below come from patent US20160279076A1, “METHODS FOR IMPROVEMENT OF VISUAL FUNCTION AND COMPOSITIONS USED THEREIN” (priority 2015, published 2016).

The assay has as its system ARPE-19 cells. The experiment in a line: Gene expression analysis in ARPE-19 cells after lutein pretreatment and UV exposure. The settings on record: for Down-regulated genes expression / Up-regulated genes expression: 10 μM lutein 24 hour pretreatment. Format: cell-based, human. As to the method:
Retinal pigment epithelial (RPE) cells play a key protective role by shielding retina from damaging UV rays and are used as a model to study the effect of macular carotenoids. In this study, a human RPE cell line (ARPE-19 cells were acquired from American Type Culture Collection (ATCC)) was either treated with placebo or treated with macular carotenoids alone or in combination for 24 hours prior to UV exposure. Cells were maintained for another 18 hours, then harvested for gene expressions. In another study, acetylcholinesterase and catalase activities in the presence of macular carotenoids were tested.
According to Study 1, Cell line ARPE-19 was subjected to 24 hour pretreatment with 10 μM lutein, followed by exposure to UV radiation of 1 J/m^2 for 7 seconds.
According to Study 2, Cell line ARPE-19 was subjected to 24 hour pretreatment with 10 μM lutein, followed by exposure to UV radiation of 300 J/m^2 for 10 minutes.
Gene expression analysis was carried out in response to UV exposure and macular carotenoid administration.

Regarding `CC1=C[C@H](O)CC(C)(C)[C@H]1/C=C/C(C)=C/C=C/C(C)=C/C=C/C=C(C)/C=C/C=C(C)/C=C/C1=C(C)C[C@@H](O)CC1(C)C` [Lutein, lutein], under “with UV exposure”, the Down-regulated genes expression result is recorded as “inhibits inflammation”; the Up-regulated genes expression entry was “inhibits oncogenesis and growth factor tumor suppressors”. In addition, for the setting “without UV exposure”, the Down-regulated genes expression entry was “inhibits DNA damage and inflammation”; the Up-regulated genes expression result is “inhibits oncogenesis and inflammation”. Under “ARPE-19 cells, UV irradiation”, the “Gene expression analysis, overall role for vision health” value is “plays a protective role for vision health”.
